Test results published in patent US9850219B1, “Phenothiazine derivatives and methods of use thereof” (Acenda Pharma, Inc., priority 2016, dated 2017).

Columns and labels:
H441GL = experiment: Cytotoxicity, sulforhodamine B (SRB) assay, H441GL; assay type: cell-based, Human; conditions: Homo sapiens, 48 h, NA indicates no activity
Excerpt: (§1) Human non-small cell lung cancer (NSCLC) cell lines (e.g., A549, H441GL and H1299), colon cancer cell lines (e.g., HCT116 and DLD1), breast cancer cell lines (e.g., MCF7 and MDA-MB-231), and pancreatic cancer cell lines (e.g., PANC-1 and SUIT-2) were used in cytotoxicity studies. […] A549 and H441GL are EGFR-wild type adenocarcinoma cell lines. H1299 is an EGFR-wild type large cell carcinoma cell line. HCT116 and DLD1 are metastatic colon cell lines. MCF7 is a hormone-responsive breast cancer cell line. MDA-MB-231 is a triple-negative breast cancer cell line. PANC-1 is a metastatic adenocarcinoma cell line. SUIT-2 is a pancreatic ductal adenocarcinoma cell line.
(§2) All cell lines were grown and maintained in RPMI medium supplemented with 10% fetal bovine serum (FBS, Invitrogen), 2 mM L-glutamine, 100 U/mL penicillin, and 100 μg/mL streptomycin. For cell the culture experiment, stock solution (10 mM) of each test compound was dissolved in dimethyl sulfoxide (DMSO; Sigma).
(§3) Cells were plated in 96-well plates at a density of 2000 cells per well in triplicate. The cells in each well were treated on the third day (to ensure proper plating efficiency and vitality) with different concentrations (0-50 μM) of each test compound for 48 h.
(§4) Cell viability was assessed using the sulforhodamine B (SRB) assay. The medium was discarded, and the adherent cells were fixed by 100 μL of cold 10% trichloroacetic acid (w/v) in each well for 1 h at 4° C. After fixation, cells were stained with 100 μL/well of 0.4% (w/v, in 1% acetic acid) SRB solution for 30 min at room temperature, and then washed 5 times with 1% acetic acid. After air-drying, 100 μL of 10 mM Tris base was added to each well and the absorbance was read at 530 nm. Cytotoxicity is expressed as the percent of cells in drug treated wells relative to number of cells in the solvent only control (set to 100%). Each experiment was performed independently in triplicate and cytotoxicity IC50 value of each test compound was calculated from cytotoxicity data obtained at various concentrations.

A549 = experiment: Cytotoxicity, sulforhodamine B (SRB) assay, A549; assay type: cell-based, Human; conditions: Homo sapiens, A549, 48 h, NA indicates no activity
Excerpt: as §1, §2, §3, §4

H1299 = experiment: Cytotoxicity, sulforhodamine B (SRB) assay, H1299; assay type: cell-based; conditions: Homo sapiens, NCI-H1299, H1299, 48 h
Excerpt: as §1, §2, §3, §4

HCT116 = experiment: Cytotoxicity, sulforhodamine B (SRB) assay, HCT116; assay type: cell-based, human; conditions: Homo sapiens, HCT-116, HCT116, Colon, 48 h
Excerpt: (§5) Human non-small cell lung cancer (NSCLC) cell lines (e.g., A549, H441GL and H1299), colon cancer cell lines (e.g., HCT116 and DLD1), breast cancer cell lines (e.g., MCF7 and MDA-MB-231), and pancreatic cancer cell lines (e.g., PANC-1 and SUIT-2) were used in cytotoxicity studies. These NSCLC cell lines have intrinsic resistance to epidermal growth factor receptor (EGFR) inhibitors, e.g., gefitinib. A549 and H441GL are EGFR-wild type adenocarcinoma cell lines. H1299 is an EGFR-wild type large cell carcinoma cell line. HCT116 and DLD1 are metastatic colon cell lines. MCF7 is a hormone-responsive breast cancer cell line. MDA-MB-231 is a triple-negative breast cancer cell line. PANC-1 is a metastatic adenocarcinoma cell line. SUIT-2 is a pancreatic ductal adenocarcinoma cell line.
as §2, §3, §4

DLD1 = experiment: Cytotoxicity, sulforhodamine B (SRB) assay, DLD1; assay type: cell-based, human; conditions: Homo sapiens, DLD-1, DLD1, Colon, 48 h
Excerpt: as §5, §2, §3, §4

MCF7 = experiment: Cytotoxicity, sulforhodamine B (SRB) assay, MCF7; assay type: cell-based, human; conditions: Homo sapiens, MCF7, Breast, 48 h
Excerpt: as §5, §2, §3, §4

MDA-MB-231 = experiment: Cytotoxicity, sulforhodamine B (SRB) assay, MDA-MB-231; assay type: cell-based, human; conditions: Homo sapiens, MDA-MB-231, Breast, 48 h
Excerpt: as §5, §2, §3, §4

PANC-1 = experiment: Cytotoxicity, sulforhodamine B (SRB) assay, PANC-1; assay type: cell-based, human; conditions: Homo sapiens, PANC-1, Pancreas, 48 h, NA = no activity
Excerpt: as §5, §2, §3, §4

SUIT-2 = experiment: Cytotoxicity, sulforhodamine B (SRB) assay, SUIT-2; assay type: cell-based, human; conditions: Homo sapiens, SUIT-2, Pancreas, 48 h
Excerpt: as §5, §2, §3, §4

H441GL cells = experiment: Study 2: tumor size in mouse lung cancer model; assay type: in vivo, NOD/SCID mice; conditions: Study 2, 0.0127 mmol/kg daily, i.p.; for Tumor Size [Fold Change from Week 3 (Mean ± SD, n = 4)] Week 3: Week 3 (baseline, start of treatment)
Experimental: H441GL cells (1×10^6 cells in 100 μL phosphate-buffered saline/injection) were subcutaneously injected into the right flank of NOD/SCID mice (female, 4-6 weeks old). Mice were allowed 2 weeks for tumor growth. On the first day of Week 3 post injection, tumor-bearing mice were randomly divided into control group (DMSO vehicle, intraperitoneal (i.p.) injection) and test compound treatment groups (5 mg/kg/day, 5 days/week, i.p. injection). Over the period of 10 weeks, tumorigenesis in both groups was measured using a caliper on a weekly basis. The change in tumor size was expressed as in fold change from Week 3. In this study body weight of each mouse was also recorded at the end of each study week.
In this study, the daily dose was 0.0127 mmol/kg instead of 5 mg/kg.

lung cancer cells = experiment: Cytotoxicity SRB assay, summary of Table 2; assay type: cell-based, Human; conditions: summary in words of Table 2
Excerpt: as §5, §3, §4
NA indicates no activity.

NSCLC cells = conditions: from WO2015/184794, WO2013/060305, Yeh et al. 2012; cited from earlier work
[1] = test system: CSCs in human NSCLC cell lines; conditions: from US 2014/0294994, WO2013/060305, WO2015/184794; cited from earlier work

SMILES	IC50 (H441GL) [µM]	IC50 (A549) [µM]	IC50 (H1299) [µM]	IC50 (HCT116) [µM]	IC50 (DLD1) [µM]	IC50 (MCF7) [µM]	IC50 (MDA-MB-231) [µM]	IC50 (PANC-1) [µM]	IC50 (SUIT-2) [µM]	Tumor Size [Fold Change from Week 3 (Mean ± SD, n = 4)] Week 3 (H441GL cells) [Fold Change]	Tumor Size [Fold Change from Week 3 (Mean ± SD, n = 4)] Week 9 (H441GL cells) [Fold Change]	Tumor Size [Fold Change from Week 3 (Mean ± SD, n = 4)] Week 13 (H441GL cells) [Fold Change]	inhibition of cell proliferation of lung cancer cells (lung cancer cells)	cytotoxicity to NSCLC cells (NSCLC cells)	anti-tumor effects, growth of CSCs in human NSCLC cell lines [1]
COCC(COCC(COCC(COCCOCCOCCN1CCN(CCCN2c3ccccc3Sc3ccc(C(F)(F)F)cc32)CC1)OC)OC)OC (stereo not drawn) [Compound 25-1b, NDT-[CH2CH2O]n—[CH2CH(OCH3)CH2O]3—CH3]	8.8	11.4	6.9	7.2	11.7	12.2	11.2	10	10.9	1 ± 0	10.2 ± 1.4	25.0 ± 4.4	inhibit cell proliferation		
COCC(COCC(COCC(COCCOCCOCCOCCOCCOCCOCCOCCOCCN1CCN(CCCN2c3ccccc3Sc3ccc(C(F)(F)F)cc32)CC1)OC)OC)OC (stereo not drawn) [Compound 25-2b, NDT-[CH2CH2O]n—[CH2CH(OCH3)CH2O]3—CH3]	11.4	14	13.9	11.4	15.3	10.9	13.1	2.9	13	1 ± 0	13.0 ± 1.6	35.7 ± 5.3	inhibit cell proliferation		
COCCOCCOCCOCC(COCC(COCC(CN1CCN(CCCN2c3ccccc3Sc3ccc(Cl)cc32)CC1)OC)OC)OC (stereo not drawn) [Compound 26-1a, NDP-[CH2CH(OCH3)CH2O]3—[CH2CH2O]n—CH3]	12.1	11.2	24.9	11.2	22.3	14.6	13.5	15.8	25.8				inhibit cell proliferation		
COCCOCCOCCOCCOCCOCCOCCOCCOCCOCC(COCC(COCC(CN1CCN(CCCN2c3ccccc3Sc3ccc(Cl)cc32)CC1)OC)OC)OC (stereo not drawn) [Compound 26-2a, NDP-[CH2CH(OCH3)CH2O]3—[CH2CH2O]n—CH3]	25.4	23.8	42.6	13.3	32.8	24.2	16.3	27.9	26.9				inhibit cell proliferation		
COCCOCCOCCOCCOCCOCCOCCOCCOCCOCC(COCC(COCC(CN1CCN(CCCN2c3ccccc3Sc3ccc(C(F)(F)F)cc32)CC1)OC)OC)OC (stereo not drawn) [Compound 26-2b, NDT-[CH2CH(OCH3)CH2O]3—[CH2CH2O]n—CH3]	12.1	15.6	25.3	8.9	19.2	10	12.5	12.9	17.2				inhibit cell proliferation		
OCC(O)COCC(O)COCC(O)CN1CCN(CCCN2c3ccccc3Sc3ccc(Cl)cc32)CC1 (stereo not drawn) [Compound 33a, NDP-[CH2CH(OH)CH2O]3—H]	25	35.2	28.4	20.2	35.2	26	24.2	30.2	34				inhibit cell proliferation		
OCC(O)COCC(O)COCC(O)CN1CCN(CCCN2c3ccccc3Sc3ccc(C(F)(F)F)cc32)CC1 (stereo not drawn) [Compound 33b, NDT-[CH2CH(OH)CH2O]3—H]	17.9	19.8	20.8	14.9	26.4	13.8	14.8	23.5	25.7				inhibit cell proliferation		
Clc1ccc2c(c1)N(CCCN1CCNCC1)c1ccccc1S2 [NDP, 10-[3-(1-Piperazinyl)propyl]-2-chloro-10H-phenothiazine, reference compound]	8.4	9.7	6.6										inhibit cell proliferation	shown cytotoxicity	
CN1CCN(CCCN2c3ccccc3Sc3ccc(Cl)cc32)CC1 [PCP, prochlorperazine]													inhibit cell proliferation	shown cytotoxicity	inhibiting the growth of CSCs
CN1CCN(CCCN2c3ccccc3Sc3ccc(C(F)(F)F)cc32)CC1 [TFP, trifluoperazine, reference compound]	21.6	23.5	28.7										inhibit cell proliferation	shown cytotoxicity	inhibiting the growth of CSCs
